In US9567569B2, “Methods of culturing and expanding mesenchymal stem cells” (Gamida Cell Ltd., priority 2012, dated 2017):
Entries after “also recorded” stand apart in the source; their conditions may differ.

Tests used:
[1] = system: Human bone marrow derived mesenchymal cells; assay: Expansion of mesenchymal stem cells in culture in the presence or absence of SR1 (cell counts, doubling time); assay type: cell-based
Protocol: (§1) Isolation—Human bone marrow derived mesenchymal cells were isolated based on their plastic adherence potential in expansion medium containing: High glucose DMEM and 10% Fetal Bovine Serum (FBS, Hyclone, Logan, Utah, USA), 0.05 mg/ml Gentamicin (Sigma) and 2 mM L-glutamine (Biological Industries, Israel). Cells were allowed to adhere for 3-4 days and non-adherent cells were washed out with medium changes. Expansion—Mesenchymal stem cells were isolated using plastic adherence method, as described above and cultured for several passages in a medium which comprises fetal bovine serum in the presence or absence of SR1 for three passages (StemRegenin1, BioVision cat#1967-1). Three concentrations 250, 1000 and 2500 nM of SR1 were examined. At about 80% confluence, adherent cells were collected following trypsin treatment, counted, characterized and re-seeded at a concentration of 1×10^3 cells/cm^2.

[2] = system: CD34+ cells; details: cited from earlier work
[3] = system: Human bone marrow derived mesenchymal cells; assay: FACS measurement of CD45, CD105 and VCAM1/CD106 on cultured mesenchymal stem cells; assay type: cell-based; details: with vs without SR1 under identical conditions
Protocol: as §1, with “Measurement of CD45, CD105” for “Three concentrations 250, 1000”, “VCAM1/CD106: following Trypsin treatment the” for “2500 nM of SR1 were examined. At about 80% confluence, adherent”, “analyzed for CD45, CD105 or CD106 expression in FACS using anti-human CD45 FITC, CD105 PE or CD106 APC antibodies.” for “collected following trypsin treatment, counted, characterized and re-seeded at a concentration of 1×10^3 cells/cm^2.”

[4] = biological target: T1, aryl hydrocarbon receptor (AhR) (Homo sapiens, UniProt P35869); details: cited from earlier work
T1 sequence (P35869 11-848): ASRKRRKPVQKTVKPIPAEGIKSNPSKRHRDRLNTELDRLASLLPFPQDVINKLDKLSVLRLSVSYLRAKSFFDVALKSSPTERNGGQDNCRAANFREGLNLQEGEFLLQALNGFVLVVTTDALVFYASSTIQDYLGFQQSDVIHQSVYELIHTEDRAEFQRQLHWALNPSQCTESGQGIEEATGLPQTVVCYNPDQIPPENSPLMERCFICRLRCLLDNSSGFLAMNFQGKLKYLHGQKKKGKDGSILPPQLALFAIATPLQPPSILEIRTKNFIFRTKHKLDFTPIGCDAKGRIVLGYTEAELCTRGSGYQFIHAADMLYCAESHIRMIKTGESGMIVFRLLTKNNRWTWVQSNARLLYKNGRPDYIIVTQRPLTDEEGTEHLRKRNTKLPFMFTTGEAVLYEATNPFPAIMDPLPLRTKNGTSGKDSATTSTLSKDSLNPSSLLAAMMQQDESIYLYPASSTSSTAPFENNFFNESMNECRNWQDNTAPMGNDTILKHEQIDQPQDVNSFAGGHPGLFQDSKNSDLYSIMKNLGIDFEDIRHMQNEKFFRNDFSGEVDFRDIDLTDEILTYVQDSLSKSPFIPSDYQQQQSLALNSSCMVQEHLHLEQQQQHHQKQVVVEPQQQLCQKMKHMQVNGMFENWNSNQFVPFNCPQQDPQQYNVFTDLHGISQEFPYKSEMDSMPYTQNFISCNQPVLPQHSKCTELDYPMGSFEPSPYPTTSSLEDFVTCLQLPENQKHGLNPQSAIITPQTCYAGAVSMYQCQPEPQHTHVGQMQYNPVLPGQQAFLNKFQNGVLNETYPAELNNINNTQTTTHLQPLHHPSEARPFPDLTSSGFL

SMILES: CC(C)n1cnc2c(NCCc3ccc(O)cc3)nc(-c3csc4ccccc34)nc21 [SR1, 4-(2-(2-(benzo[b]thiophen-3-yl)-9-isopropyl-9H-purin-6-ylamino)ethyl)phenol]
- effect on the proliferation of mesenchymal stem cells (cumulative count) ([1]; SR1 250, 1000 and 2500 nM vs control, three passages, FIGS. 1-3): proliferate more rapidly; also recorded: positive effect
- most effective concentration for proliferation of mesenchymal stem cells ([1]; of 250, 1000 and 2500 nM examined): 250 nM
- doubling time of mesenchymal stem cells ([1]; passage 2, with vs without SR1, FIG. 3): decreased
- time for cultures to reach confluence ([1]; with vs without SR1): substantially shorter period of time
- ex vivo expansion of CD34+ cells [2]: promote the ex vivo expansion of CD34+ cells
- CD45 and CD105 levels (percentage of CD105+CD45- cells) ([3]; FIG. 4): same CD45 and CD105 levels
- VCAM1/CD106 expression (percentage of CD106+ cells) ([3]; FIG. 5): increase the fraction of CD106+ cells; also recorded: express more VCAM1/CD106 adhesion molecule
- action on the aryl hydrocarbon receptor [4]: antagonizing
